Reference: ChEMBL document CHEMBL2321873, “1-(4-Phenylpiperazin-1-yl)-2-(1H-pyrazol-1-yl)ethanones as novel CCR1 antagonists” (Bioorg Med Chem Lett, 2013)
Active and inactive are the calls of the source. The rule behind the calls is not given here.

Columns and labels:
[1] = molecular target: T1, G protein-coupled receptor (Human herpesvirus 8) (UniProt Q76SF8); experiment: Antagonist activity at HHV8 ORF74 assessed as inhibition of chemotaxis at 10 uM; conditions: Human gammaherpesvirus 8
T1 sequence (whole entry): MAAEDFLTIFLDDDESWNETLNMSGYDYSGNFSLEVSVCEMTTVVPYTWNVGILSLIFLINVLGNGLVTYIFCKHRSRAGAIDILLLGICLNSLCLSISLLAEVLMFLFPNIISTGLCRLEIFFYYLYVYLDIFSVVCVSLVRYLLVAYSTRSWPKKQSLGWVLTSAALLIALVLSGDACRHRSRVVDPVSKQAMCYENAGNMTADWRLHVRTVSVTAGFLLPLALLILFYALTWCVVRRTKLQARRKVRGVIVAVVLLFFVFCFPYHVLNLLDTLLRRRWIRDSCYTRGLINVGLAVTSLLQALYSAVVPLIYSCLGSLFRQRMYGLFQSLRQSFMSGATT

[2] = molecular target: T2, C-C chemokine receptor type 10 (Homo sapiens) (UniProt P46092); experiment: Antagonist activity at CCR10 (unknown origin) assessed as inhibition of chemotaxis at 10 uM
T2 sequence (whole entry): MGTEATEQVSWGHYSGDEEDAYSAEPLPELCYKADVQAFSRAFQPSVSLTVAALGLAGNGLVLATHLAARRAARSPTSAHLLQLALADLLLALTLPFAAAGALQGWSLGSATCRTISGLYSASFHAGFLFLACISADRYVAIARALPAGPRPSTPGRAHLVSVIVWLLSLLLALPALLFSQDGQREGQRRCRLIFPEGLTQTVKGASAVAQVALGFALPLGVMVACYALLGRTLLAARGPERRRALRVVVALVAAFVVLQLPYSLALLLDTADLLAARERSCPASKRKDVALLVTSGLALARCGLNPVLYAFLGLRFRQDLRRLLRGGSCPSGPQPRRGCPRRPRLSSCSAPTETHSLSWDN

[3] = molecular target: T3, C-C chemokine receptor type 7 (Homo sapiens) (UniProt P32248); experiment: Antagonist activity at CCR7 (unknown origin) assessed as inhibition of chemotaxis at 10 uM
T3 sequence (whole entry): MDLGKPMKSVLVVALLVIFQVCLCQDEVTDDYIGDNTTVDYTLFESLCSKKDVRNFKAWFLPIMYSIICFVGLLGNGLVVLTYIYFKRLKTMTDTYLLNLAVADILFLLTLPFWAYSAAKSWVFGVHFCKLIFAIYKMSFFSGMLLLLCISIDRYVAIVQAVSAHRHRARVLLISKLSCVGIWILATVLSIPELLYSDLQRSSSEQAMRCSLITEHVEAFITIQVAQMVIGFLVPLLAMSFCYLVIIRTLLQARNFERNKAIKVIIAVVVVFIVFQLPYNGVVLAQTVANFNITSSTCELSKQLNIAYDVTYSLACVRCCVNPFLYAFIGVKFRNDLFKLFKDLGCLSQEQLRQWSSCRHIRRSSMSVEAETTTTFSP

[4] = molecular target: T4, C-X-C chemokine receptor type 5 (Homo sapiens) (UniProt P32302); experiment: Antagonist activity at CXCR5 (unknown origin) assessed as inhibition of calcium flux at 10 uM; assay type: functional
T4 sequence (whole entry): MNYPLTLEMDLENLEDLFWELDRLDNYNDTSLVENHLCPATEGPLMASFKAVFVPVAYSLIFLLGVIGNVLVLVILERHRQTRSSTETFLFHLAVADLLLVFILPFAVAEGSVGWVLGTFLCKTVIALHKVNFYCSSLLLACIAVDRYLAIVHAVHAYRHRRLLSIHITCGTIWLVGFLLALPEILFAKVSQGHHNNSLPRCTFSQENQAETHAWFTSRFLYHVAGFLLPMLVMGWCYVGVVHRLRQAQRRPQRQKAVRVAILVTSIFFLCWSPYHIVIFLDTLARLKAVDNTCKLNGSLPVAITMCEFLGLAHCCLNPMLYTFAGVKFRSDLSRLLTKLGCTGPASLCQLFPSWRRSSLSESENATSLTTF

[5] = molecular target: T5, C-C chemokine receptor type 9 (Homo sapiens) (UniProt P51686); experiment: Antagonist activity at CCR9 (unknown origin) assessed as inhibition of calcium flux at 10 uM; assay type: functional
T5 sequence (whole entry): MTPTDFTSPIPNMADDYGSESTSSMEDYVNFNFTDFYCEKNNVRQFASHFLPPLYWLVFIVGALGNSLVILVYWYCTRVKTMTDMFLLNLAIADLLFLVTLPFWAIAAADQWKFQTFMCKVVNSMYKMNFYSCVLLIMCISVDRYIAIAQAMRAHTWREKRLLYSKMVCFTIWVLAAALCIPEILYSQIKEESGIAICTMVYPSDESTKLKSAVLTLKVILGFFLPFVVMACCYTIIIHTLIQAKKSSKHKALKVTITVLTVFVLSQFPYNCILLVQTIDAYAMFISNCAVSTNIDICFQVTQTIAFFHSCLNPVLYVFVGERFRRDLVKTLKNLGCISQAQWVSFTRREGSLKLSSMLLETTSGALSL

[6] = molecular target: C-X-C chemokine receptor type 4 (Homo sapiens) (UniProt P61073); experiment: Binding affinity to CXCR4 (unknown origin) at 10 uM by radioligand displacement assay
[7] = molecular target: T6, C-C chemokine receptor-like 2 (Homo sapiens) (UniProt O00421); experiment: Binding affinity to CCR11 (unknown origin) at 10 uM by radioligand displacement assay
T6 sequence (whole entry): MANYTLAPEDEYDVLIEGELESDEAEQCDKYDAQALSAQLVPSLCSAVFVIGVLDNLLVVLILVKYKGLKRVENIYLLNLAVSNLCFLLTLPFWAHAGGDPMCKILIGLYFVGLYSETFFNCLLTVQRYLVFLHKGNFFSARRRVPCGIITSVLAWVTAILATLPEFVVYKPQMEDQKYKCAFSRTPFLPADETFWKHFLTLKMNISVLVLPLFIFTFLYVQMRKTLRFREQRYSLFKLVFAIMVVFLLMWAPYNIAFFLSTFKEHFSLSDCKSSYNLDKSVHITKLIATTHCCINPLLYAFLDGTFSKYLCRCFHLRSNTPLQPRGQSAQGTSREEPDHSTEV

[8] = molecular target: Cytochrome P450 3A4 (Homo sapiens, UniProt P08684); experiment: Competitive inhibition of CYP3A4 (unknown origin); assay type: ADME
[9] = molecular target: Cytochrome P450 1A2 (Homo sapiens, UniProt P05177); experiment: Competitive inhibition of CYP1A2 (unknown origin); assay type: ADME
[10] = system: Rattus norvegicus; experiment: Toxicity in Sprague-Dawley rat assessed as necropsy at 70 to 360 mg/kg, po after 7 days; assay type: organism-based; design: dose 70-360 mg/kg, route oral; conditions: in vivo, 168 h
[11] = Half life in Sprague-Dawley rat at 1 mg/kg, iv; assay type: ADME, organism-based; design: dose 1 mg/kg, route intravenous; conditions: in vivo

Chain of Cytochrome P450 3A4 (P08684 whole entry): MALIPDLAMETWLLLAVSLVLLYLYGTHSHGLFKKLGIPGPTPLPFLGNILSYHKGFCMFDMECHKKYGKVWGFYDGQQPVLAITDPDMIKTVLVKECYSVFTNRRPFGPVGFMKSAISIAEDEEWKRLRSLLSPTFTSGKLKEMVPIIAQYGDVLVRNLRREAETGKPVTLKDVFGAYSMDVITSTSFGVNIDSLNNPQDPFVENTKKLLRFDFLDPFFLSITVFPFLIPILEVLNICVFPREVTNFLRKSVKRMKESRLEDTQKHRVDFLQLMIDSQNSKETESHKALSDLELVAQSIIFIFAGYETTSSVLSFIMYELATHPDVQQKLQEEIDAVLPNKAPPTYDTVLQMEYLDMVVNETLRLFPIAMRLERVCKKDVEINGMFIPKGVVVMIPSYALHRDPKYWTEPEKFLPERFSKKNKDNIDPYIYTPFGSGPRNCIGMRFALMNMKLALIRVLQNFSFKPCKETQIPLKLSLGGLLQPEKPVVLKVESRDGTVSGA
Chain of Cytochrome P450 1A2 (P05177 whole entry): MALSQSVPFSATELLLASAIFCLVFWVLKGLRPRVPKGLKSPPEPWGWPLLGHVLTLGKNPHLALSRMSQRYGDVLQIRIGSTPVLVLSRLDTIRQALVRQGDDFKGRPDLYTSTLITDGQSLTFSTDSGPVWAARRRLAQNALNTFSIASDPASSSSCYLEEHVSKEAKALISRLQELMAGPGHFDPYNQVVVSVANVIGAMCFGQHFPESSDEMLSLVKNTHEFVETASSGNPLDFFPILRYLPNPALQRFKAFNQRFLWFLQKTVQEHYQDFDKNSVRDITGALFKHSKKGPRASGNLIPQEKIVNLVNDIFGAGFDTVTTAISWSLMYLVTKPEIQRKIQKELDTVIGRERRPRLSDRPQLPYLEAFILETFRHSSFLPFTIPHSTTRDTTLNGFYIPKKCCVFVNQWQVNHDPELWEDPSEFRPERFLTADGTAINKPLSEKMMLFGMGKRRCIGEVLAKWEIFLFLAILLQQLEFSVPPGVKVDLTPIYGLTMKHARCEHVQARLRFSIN
Chain of C-X-C chemokine receptor type 4 (Homo sapiens) (P61073 whole entry): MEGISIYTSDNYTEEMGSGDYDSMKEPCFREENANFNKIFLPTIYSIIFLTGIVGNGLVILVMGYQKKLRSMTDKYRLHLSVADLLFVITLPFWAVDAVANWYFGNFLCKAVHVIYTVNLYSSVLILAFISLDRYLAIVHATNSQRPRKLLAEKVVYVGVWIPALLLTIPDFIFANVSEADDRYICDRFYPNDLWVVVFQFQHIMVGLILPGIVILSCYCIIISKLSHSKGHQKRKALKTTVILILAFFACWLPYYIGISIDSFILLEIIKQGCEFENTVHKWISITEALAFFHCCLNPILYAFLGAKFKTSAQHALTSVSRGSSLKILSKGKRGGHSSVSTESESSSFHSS

## COc1cc(N2CCN(C(=O)Cn3nc(C(F)(F)F)c(Cl)c3C)CC2)ccc1Cl
[1]
  inhibition: inactive
[2]
  inhibition: inactive
[3]
  inhibition: inactive
[4]
  inhibition: inactive
[5]
  inhibition: inactive
[6]
  Activity: inactive
[7]
  Activity: inactive
[8]
  IC50: > 10 µM
[9]
  IC50: > 10 µM
[10]
  Activity: Non-toxic
[11]
  half-life: 2.2 h
